Results: article PMC8296985, “A Covalent Calmodulin Inhibitor as a Tool to Study Cellular Mechanisms of K-Ras-Driven Stemness” (Frontiers in Cell and Developmental Biology, 2021)

test system: MDA-MB-231; experiment: 3D spheroid (tumorosphere) formation assay, low attachment, serum-free, alamarBlue; assay type: cell-based; settings: Homo sapiens, 72 h; MDA-MB-231 (K-RasG13D) 3D tumorosphere, 3 days treatment; read-out: IC50
Protocol: (§1) 3D spheroid formation assays were performed in 96-well low-attachment, suspension culture plates (cat. no. 655185, Cellstar, Greiner Bio-One) under serum-free condition. About 1,000 (MDA-MB-231, NCI-H358, and MIA PaCa-2) or 2,500 (Hs 578T) cells per well were seeded in 50 μl of either an RPMI medium (cat. no. 52400-025, Gibco, Thermo Fisher Scientific) (MDA-MB-231, A375, and NCI-H358) or DMEM (cat. no. 41965-039, Gibco, Thermo Fisher Scientific) (Hs 578T and MIA PaCa-2), containing 0.5% MethoCult (cat. no. SF H4636, Stemcell technologies), 1x B27 (cat. no. 17504044, Gibco, Thermo Fisher Scientific), 25 ng/ml EGF (cat. no. E9644, Sigma-Aldrich), and 25 ng/ml FGF (cat. no. RP-8628, Thermo Fisher Scientific). Cells were cultured for 3 days and then treated with compounds or vehicle control (DMSO 0.1% v/v in growth medium) for another 3 days. The cells were supplemented with a fresh growth medium on the third day together with the drug treatment. For knockdown experiments, cells were seeded in 12-well plates and treated with either 50 nM scrambled siRNA (cat. no. 1022076, QIAGEN) or indicated concentrations of siRNAs. Next day, cells were collected by trypsinization and re-plated into 96-well plates for 3D spheroid suspension culture.
(§2) Spheroid formation efficiency was analyzed by an alamarBlue assay reagent (cat. no. DAL1100, Thermo Fisher Scientific). A 10% final volume of the alamarBlue reagent was added to each well of the plate and incubated for 4 h at 37°C. Then the fluorescence intensity was measured using the FLUOstar OPTIMA plate reader (BMG Labtech, Germany) with an excitation wavelength of 560 ± 5 nm and an emission wavelength of 590 ± 5 nm.
(§3) To quantitatively profile the drug sensitivity with a more robust parameter than the IC50 or EC50 values, the drug sensitivity score (DSS) analysis was employed. DSS values are essentially normalized area under the curve (AUC) measures of dose-response inhibition data ([Yadav et al., 2014]). Drug response data files (in Excel) ready for online analysis were prepared according to the example file obtained from the DSS pipeline website, called Breeze^1 ([Potdar et al., 2020]). Either raw fluorescence intensity measurements or normalized % inhibition data (for BRET assay analysis) were uploaded.
(§4) DSS3 was employed to emphasize drugs that obtain their response area over a relatively wide dose window, as compared to drugs that show increased response only at the higher end of the concentration range. After logistic fitting of the dose-response inhibition data, the area under the curve (AUC) was determined as the exact solution. A 10% minimal activity threshold (t) was set. The maximum (Cmax) and minimum (Cmin) concentrations were used for screening of the inhibitors, with Cmax = x2 and x1 concentration with minimal activity t.

| IC50 | Compound |
| --- | --- |
| 15.4 µM | Cc1c(N2CCCC2)c2c(=O)c(C(F)(F)F)cc3ccc(C(C)C)cc1c32 [Compound 11, 2-pyrrolidinylbenzazulen-3-one] |
| > 40 µM | Cc1c(N2CCC2)c2c(=O)c(C(F)(F)F)cc3ccc(C(C)C)cc1c32 [Compound 12] |
| > 40 µM | Cc1c(NCCO)c2c(=O)c(C(F)(F)F)cc3ccc(C(C)C)cc1c32 [Compound 13] |
| > 40 µM | Cc1c(N)c2c(=O)c(C(F)(F)F)cc3ccc(C(C)C)cc1c32 [Compound 14] |

same assay, conditions: Homo sapiens; MDA-MB-231 3D tumorosphere; log scale; read-out: logIC50 ± SD (converted)

| IC50 | Compound |
| --- | --- |
| 15.5 µM | Cc1c(N2CCCC2)c2c(=O)c(C(F)(F)F)cc3ccc(C(C)C)cc1c32 [Compound 11, 2-pyrrolidinylbenzazulen-3-one] |

same assay, conditions: MDA-MB-231 3D tumorosphere; log scale

| Compound | logIC50 ± SD |
| --- | --- |
| Cc1c(N2CCC2)c2c(=O)c(C(F)(F)F)cc3ccc(C(C)C)cc1c32 [Compound 12] | Inconclusive |
| Cc1c(NCCO)c2c(=O)c(C(F)(F)F)cc3ccc(C(C)C)cc1c32 [Compound 13] | Inconclusive |
| Cc1c(N)c2c(=O)c(C(F)(F)F)cc3ccc(C(C)C)cc1c32 [Compound 14] | Inconclusive |

same assay, conditions: MDA-MB-231 vs Hs 578T 3D spheroid formation, 0.6–40 μM; numbers above bars Fig. 1A,B

| Compound | KRAS/HRAS mutant cell line DSS3 ratio |
| --- | --- |
| Cc1c(N2CCCC2)c2c(=O)c(C(F)(F)F)cc3ccc(C(C)C)cc1c32 [Compound 11, 2-pyrrolidinylbenzazulen-3-one] | 1.2 |
| Cc1c(N2CCC2)c2c(=O)c(C(F)(F)F)cc3ccc(C(C)C)cc1c32 [Compound 12] | 0.01 |
| Cc1c(NCCO)c2c(=O)c(C(F)(F)F)cc3ccc(C(C)C)cc1c32 [Compound 13] | 14.5 |
| Cc1c(N)c2c(=O)c(C(F)(F)F)cc3ccc(C(C)C)cc1c32 [Compound 14] | 4.7 |

test system: Hs 578T; experiment: as above; assay type: cell-based; settings: Homo sapiens, 72 h; Hs 578T (H-RasG12D) 3D tumorosphere, 3 days treatment; read-out: IC50
Protocol: as §1, §2, §3, §4

| IC50 | Compound |
| --- | --- |
| 5.2 µM | Cc1c(N2CCCC2)c2c(=O)c(C(F)(F)F)cc3ccc(C(C)C)cc1c32 [Compound 11, 2-pyrrolidinylbenzazulen-3-one] |
| 8.5 µM | Cc1c(N2CCC2)c2c(=O)c(C(F)(F)F)cc3ccc(C(C)C)cc1c32 [Compound 12] |
| > 40 µM | Cc1c(NCCO)c2c(=O)c(C(F)(F)F)cc3ccc(C(C)C)cc1c32 [Compound 13] |
| > 40 µM | Cc1c(N)c2c(=O)c(C(F)(F)F)cc3ccc(C(C)C)cc1c32 [Compound 14] |

same assay, conditions: Homo sapiens; Hs 578T 3D tumorosphere; log scale; read-out: logIC50 ± SD (converted)

| IC50 | Compound |
| --- | --- |
| 5.89 µM | Cc1c(N2CCCC2)c2c(=O)c(C(F)(F)F)cc3ccc(C(C)C)cc1c32 [Compound 11, 2-pyrrolidinylbenzazulen-3-one] |
| 7.94 µM | Cc1c(N2CCC2)c2c(=O)c(C(F)(F)F)cc3ccc(C(C)C)cc1c32 [Compound 12] |

same assay, conditions: Hs 578T 3D tumorosphere; log scale

| Compound | logIC50 ± SD |
| --- | --- |
| Cc1c(NCCO)c2c(=O)c(C(F)(F)F)cc3ccc(C(C)C)cc1c32 [Compound 13] | Inconclusive |
| Cc1c(N)c2c(=O)c(C(F)(F)F)cc3ccc(C(C)C)cc1c32 [Compound 14] | Inconclusive |

test system: K-RasG12V; experiment: K-RasG12V nanoclustering-BRET assay in HEK293-EBNA cells; assay type: cell-based; settings: 2-h treatment timeframe; OphA 10 μM, mevastatin 10 μM
Protocol: (§5) BRET assays were essentially performed as described by others ([Lavoie et al., 2013]; [Bery et al., 2018]). About 100,00–150,000 HEK293-EBNA ([Meissner et al., 2001]) cells were seeded per well of a 12-well plate in 1 ml of DMEM containing 10% FBS and 2 mM L-glutamine and were grown for 24 h. Next day, Rluc8-tagged donor and GFP2-tagged acceptor constructs were transfected into cells using a jetPRIME transfection reagent (cat. no. 114-75, Polyplus). Each well was transfected with about 1 μg of plasmid DNA using 3 μl of the jetPRIME reagent. For BRET donor saturation titration experiments, the concentration of donor plasmid (25 ng) was kept constant, and the concentration of acceptor plasmid was increased from 0 to 500 ng for RasG12V BRET pairs and 0–1,000 ng for K-Ras/CaM BRET pairs. The empty pcDNA3.1(-) plasmid was used to top-up the total DNA load per transfection. After 24 h of transfection, cells were treated with compounds or vehicle control (DMSO 0.2% v/v in a growth medium) at the specified concentration for 24 h or the stipulated time period in case of the time-course experiments. The cells from one well of a 12-well plate were collected, washed, and re-plated in PBS (cat. no. 14190-094, Gibco, Thermo Fisher Scientific) on flat bottom, white 96-well plates (cat. no. 236108, Nunc, Thermo Fisher Scientific) as four technical replicates containing 90 μl of cell suspension per well. Then fluorescence intensity followed by BRET readings were carried out on a Clariostar (BMG Labtech) plate reader at 25°C. The fluorescence intensity (RFU) of GFP2 was measured with excitation at 405 ± 10 nm and emission 515 ± 10 nm; it is proportional to the acceptor concentration [acceptor]. BRET readings were taken well by well by adding 10 μl of 100 μM coelenterazine 400a (cat. no. C-320, GoldBio), the Rluc8 substrate to each well (final concentration of 10 μM) using the injector present in the plate reader. Luminescence emission intensities were simultaneously recorded at 410 ± 40 nm (RLU, proportional to [donor]) and 515 ± 15 nm (BRET signal).
(§6) The raw BRET ratio was calculated as the BRET signal measured at 515 nm divided by the emission signal measured at 410 nm (RLU). The BRET ratio was obtained by subtracting the raw BRET ratio by a background BRET signal measured for cells expressing only the donor ([Bacart et al., 2008]) as indicated in the formula below:
(§7) For BRET donor saturation titration experiments, the BRET ratio was plotted against the [acceptor]/[donor] ratio. Technical repeat data points were averaged, and data points from all biological repeats were collected into one graph for subsequent fitting. The BRET ratio vs. relative expression data were fitted using a binding saturation equation in the Prism (GraphPad) software to obtain BRETmax and BRET50 using the equation y=BRETmax×x/BRET50+x , where x is the relative expression and y is the BRET ratio. BRETmax represents the maximum saturation BRET signal and depends on the structural parameters (distance, orientation) of the BRET complex. BRET50 corresponds to the ratio of the acceptor construct over the donor construct required to attain 50% of the maximum BRET signal and is a measure of the effective relative affinity between the interacting BRET pair ([Marullo and Bouvier, 2007]).
When applying the DSS analysis to nanoclustering-BRET data, we used mevastatin (10 μM) to obtain the asymptote parameter (a) for the maximal inhibition effect, as it prevents the prenylation of Ras proteins, their plasma membrane trafficking, and therefore nanoclustering. Otherwise, normalized BRET ratio data were converted to % inhibition and then subsequently uploaded onto the Breeze site (see text footnote 1).

| Compound | time-dependent change of K-RasG12V nanoclustering-BRET signal |
| --- | --- |
| CC[C@H](C)C(=O)O[C@H]1CCC=C2C=C[C@H](C)[C@H](CC[C@@H]3C[C@@H](O)CC(=O)O3)[C@H]21 [mevastatin] | did not cause any reduction in the BRET signal |

same assay, conditions: 24 h; calmidazolium 20 μM, OphA 2.5 μM, prostratin 10 μM, mevastatin 10 μM, benzazulenones 20 μM

| Compound | K-Ras selective reduction of nanoclustering-BRET (K-Ras vs H-Ras) |
| --- | --- |
| CC[C@H](C)C(=O)O[C@H]1CCC=C2C=C[C@H](C)[C@H](CC[C@@H]3C[C@@H](O)CC(=O)O3)[C@H]21 [mevastatin] | fairly indiscriminately |
| CC(=O)O[C@@]12C[C@@H](C)[C@@]3(O)[C@@H](C=C(CO)C[C@]4(O)C(=O)C(C)=C[C@@H]34)[C@@H]1C2(C)C [prostratin] | 1.5 fold |

test system: NCI-H358, MIA PaCa-2, MDA-MB-231 and A375 3D spheroids; experiment: 3D spheroid growth benchmarking, DSS3, alamarBlue; assay type: cell-based; settings: spheroids grown 72 h then treated 72 h
Protocol: as §1, §2, §3, §4

| Compound | effect on 3D spheroid growth |
| --- | --- |
| C=CC(=O)N1CCN(c2nc(=O)n(-c3c(C)ccnc3C(C)C)c3nc(-c4c(O)cccc4F)c(F)cc23)[C@@H](C)C1 [AMG-510] | selectively and potently abolished the growth |
| CC(=O)O[C@@]12C[C@@H](C)[C@@]3(O)[C@@H](C=C(CO)C[C@]4(O)C(=O)C(C)=C[C@@H]34)[C@@H]1C2(C)C [prostratin] | almost no effect on cell growth |
| CCCS(=O)(=O)Nc1ccc(F)c(C(=O)c2c[nH]c3ncc(-c4ccc(Cl)cc4)cc23)c1F [vemurafenib] | selectively and potently abolished the growth |

target: T1, K-RasG12V/CaM (Homo sapiens, UniProt P0DP23); experiment: Rluc8-K-RasG12V/GFP2-CaM interaction BRET in HEK293-EBNA cells; assay type: cell-based; settings: calmidazolium 20 μM, prostratin 20 μM, OphA 5 μM
T1 construct: expressed in transfected cells; host or cells: HEK293-EBNA
Protocol: as §5, §6, §7

| Compound | effect on Rluc8-K-RasG12V/GFP2-CaM BRET signal, single concentration |
| --- | --- |
| CC(=O)O[C@@]12C[C@@H](C)[C@@]3(O)[C@@H](C=C(CO)C[C@]4(O)C(=O)C(C)=C[C@@H]34)[C@@H]1C2(C)C [prostratin] | did not have an effect |

target: calmodulin (CaM) (Bos taurus, UniProt P62157); experiment: Fluorescence polarization assay, displacement of F-PMCA peptide from CaM; settings: not given

| Kd | Ki | Compound |
| --- | --- | --- |
| 0.81 µM | 78 µM | Cc1c(N2CCCC2)c2c(=O)c(C(F)(F)F)cc3ccc(C(C)C)cc1c32 [Compound 11, 2-pyrrolidinylbenzazulen-3-one] |
| 6.1 µM |  | Cc1c(N2CCC2)c2c(=O)c(C(F)(F)F)cc3ccc(C(C)C)cc1c32 [Compound 12] |
| 62 µM |  | Cc1c(NCCO)c2c(=O)c(C(F)(F)F)cc3ccc(C(C)C)cc1c32 [Compound 13] |
| 21.4 µM |  | Cc1c(N)c2c(=O)c(C(F)(F)F)cc3ccc(C(C)C)cc1c32 [Compound 14] |

same assay, conditions: read-out: k2/Ki second-order rate constant

| kinact/KI | Compound |
| --- | --- |
| 1.11 M⁻¹ s⁻¹ | Cc1c(N2CCCC2)c2c(=O)c(C(F)(F)F)cc3ccc(C(C)C)cc1c32 [Compound 11, 2-pyrrolidinylbenzazulen-3-one] |
